Results published in US20240148745A1, “COMPOUNDS FOR USE IN PROGRESSIVE MULTIPLE SCLEROSIS” (FONDAZIONE CENTRO SAN RAFFAELE, priority 2021, published 2024).

What was measured:
[1] = tested on: human iPS-derived neuroprecursors; assay: Differentiation of human iPS-derived neuroprecursors into MBP+ oligodendrocytes; assay type: cell-based; conditions: 1 μM in minimal medium, p<0.05
Method in brief: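 Human iPS-derived NPCs with doxycycline-inducible SOX10/OLIG2/NKX6.2 were differentiated, replated on day 7, then treated in minimal medium with compound at 1 μM (DMSO vehicle negative control, 60 ng/mL T3 positive control) until fixation on day 21. MBP+ cells were counted manually by immunocytochemistry against DAPI-counted nuclei.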

[2] = tested on: rat oligodendrocyte progenitor CG4 line; assay: Differentiation assay on rat oligodendrocyte progenitor CG4 line (HCS, mCherry+); assay type: cell-based; conditions: secondary screen of 49 selected compounds, 1 μM, 5 days
Method in brief: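 Double-reporter CG4 cells (mCherry in mature oligodendrocytes, EGFP in all lineage stages) proliferated 24 h, then given compounds at 1 μM for 5 days of differentiation, ⅔ medium changed at day 3. 9cis-RA as positive control, basal medium and 0.1% DMSO as negative; triplicates imaged by HCS, 35 fields/well.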

Structure (SMILES)	differentiation into MBP+ oligodendrocytes [1]	CG4 differentiation compared with 9cis-RA positive control [2]	differentiation into MBP+ oligodendrocytes ([1]; Hydrochloride)
O=C(c1ccc(CN2CCOCC2)cc1)N1CCN(C2CC2)CC1 [Bavisant]	promote significantly (p<0.05) the differentiation into MBP+ oligodendrocytes	promoting differentiation significantly higher than 9cis-RA positive control	
CC(=O)N1CCN([C@H]2CCN(C(=O)N(C)[C@H](C)c3cc(C(F)(F)F)cc(C(F)(F)F)c3)[C@@H](c3ccc(F)cc3C)C2)CC1 [Casopitant]	promote significantly (p<0.05) the differentiation into MBP+ oligodendrocytes	promoting differentiation significantly higher than 9cis-RA positive control	
CCOC(=O)[C@@H](N)CCC(=O)N[C@@H](CSCc1ccccc1)C(=O)N[C@@H](C(=O)OCC)c1ccccc1.Cl [Ezatiostat hydrochloride, Ezatiostat Hydrochloride]		promoting differentiation significantly higher than 9cis-RA positive control	promote significantly (p<0.05) the differentiation into MBP+ oligodendrocytes
C[C@H](Nc1cc(-c2cnn(C)c2)cc(Nc2cnccn2)n1)c1ccc(F)cc1 [NS-018]	promote significantly (p<0.05) the differentiation into MBP+ oligodendrocytes	promoting differentiation significantly higher than 9cis-RA positive control	
NCCCC[C@H](NC(=O)[C@@H](Cc1cc(Br)c(O)c(Br)c1)NC(=O)N1CCC(N2Cc3ccccc3NC2=O)CC1)C(=O)N1CCN(c2ccncc2)CC1 [Olcegepant]	promote significantly (p<0.05) the differentiation into MBP+ oligodendrocytes	promoting differentiation significantly higher than 9cis-RA positive control	
O=C(NOC[C@H](O)CO)c1ccc(F)c(F)c1Nc1ccc(I)cc1F [PD-0325901]	promote significantly (p<0.05) the differentiation into MBP+ oligodendrocytes	promoting differentiation significantly higher than 9cis-RA positive control	
CC(=O)[C@H]1CC[C@H]2[C@@H]3CCC4=CC(=O)CC[C@]4(C)[C@H]3CC[C@]12C [Progesterone]	promote significantly (p<0.05) the differentiation into MBP+ oligodendrocytes	promoting differentiation significantly higher than 9cis-RA positive control	
CC1(C)CCC(C)(C)c2cc(NC(=O)c3ccc(C(=O)O)cc3)ccc21 [Tamibarotene]		promoting differentiation significantly higher than 9cis-RA positive control	
